The values below come from patent US20040067955A1, “Pyridazinone compound and pharmaceutical use thereof” (Fujisawa Pharmaceutical Co. Ltd., priority 2002, published 2004).

The melting point is the temperature of the solid-liquid transition. The Ki is a measure of affinity in units of concentration, obtained from inhibition or displacement. A low value points to tighter binding.

The structures appear in SMILES notation.

Tested on in one series: not given
Assay: not given
`CC(C)n1nc(-c2cc(C#N)c(=O)[nH]c2-c2ccccc2)ccc1=O` [Example 1, 5-(1-isopropyl-6-oxo-1,6-dihydro-3-pyridazinyl)-2-oxo-6-phenyl-1,2-dihydro-3-pyridine-carbonitrile] registered a melting point of over 250 °C.

Regarding `CC(C)n1nc(-c2cc(C#N)c(Cl)nc2-c2ccccc2)ccc1=O` [Example 2, 2-chloro-5-(1-isopropyl-6-oxo-1,6-dihydro-3-pyridazinyl)-6-phenylnicotinonitrile], the melting point is 191 to 192 °C.

In turn, `CC(C)n1nc(-c2cc(C(N)=O)c(Cl)nc2-c2ccccc2)ccc1=O` [Example 5, 2-chloro-5-(1-isopropyl-6-oxo-1,6-dihydro-3-pyridazinyl)-6-phenylnicotinamide] yielded a melting point of 199 to 200 °C.

For the molecule `CC(C)n1nc(-c2cc(C(N)=O)cnc2-c2ccccc2)ccc1=O` [Example 6, 5-(1-isopropyl-6-oxo-1,6-dihydro-3-pyridazinyl)-6-phenylnicotinamide], the melting point was 229 to 230 °C.

`CC(C)n1nc(-c2cc(C(N)=O)c(N)nc2-c2ccccc2)ccc1=O` [Example 7, 2-Amino-5-(1-isopropyl-6-oxo-1,6-dihydro-3-pyridazinyl)-6-phenylnicotinamide] displayed a melting point of over 250 °C.

In turn, `CC(C)n1nc(-c2cc(C#N)cnc2-c2ccccc2)ccc1=O` [Example 8, 5-(1-isopropyl-6-oxo-1,6-dihydro-3-pyridazinyl)-6-phenylnicotinonitrile] returned a melting point of 133 to 135 °C.

Turning to `COC(=O)c1nc(-c2ccccc2)c(-c2ccc(=O)n(C(C)C)n2)cc1C#N` [Example 9, methyl 3-cyano-5-(1-isopropyl-6-oxo-1,6-dihydro-3-pyridazinyl)-6-phenyl-2-pyridinecarboxylate], the melting point is 136 to 138 °C.

`COc1nc(-c2ccccc2)c(-c2ccc(=O)n(C(C)C)n2)cc1C#N` [Example 10, 5-(1-isopropyl-6-oxo-1,6-dihydro-3-pyridazinyl)-2-methoxy-6-phenylnicotinonitrile] gave a melting point of 187 to 189 °C.

`CC(C)n1nc(-c2cc(C#N)c(C(=O)O)nc2-c2ccccc2)ccc1=O` [Example 11, 3-cyano-5-(1-isopropyl-6-oxo-1,6-dihydro-3-pyridazinyl)-6-phenyl-2-pyridinecarboxylic acid] showed a melting point of 196 to 198 °C.

The molecule `CC(C)n1nc(-c2cc(C#N)c(C(N)=O)nc2-c2ccccc2)ccc1=O` [Example 12, 3-cyano-5-(1-isopropyl-6-oxo-1,6-dihydro-3-pyridazinyl)-6-phenyl-2-pyridinecarboxamide] showed a melting point of 221 to 223 °C.

The molecule `CC(C)n1nc(-c2cc(C(=O)O)c(=O)[nH]c2-c2ccccc2)ccc1=O` [Example 13, 5-(1-isopropyl-6-oxo-1,6-dihydro-3-pyridazinyl)-2-oxo-6-phenyl-1,2-dihydro-3-pyridinecarboxylic acid] showed a melting point of 212 to 215 °C.

In the case of `CNC(=O)c1cnc(-c2ccccc2)c(-c2ccc(=O)n(C(C)C)n2)c1` [Example 15, 5-(1-isopropyl-6-oxo-1,6-dihydro-3-pyridazinyl)-N-methyl-6-phenyl-nicotinamide], the melting point was 212 to 213 °C.

With `CC(C)n1nc(-c2cc(C(=O)NCc3ccccc3)cnc2-c2ccccc2)ccc1=O` [Example 16, N-Benzyl-5-(1-isopropyl-6-oxo-1,6-dihydro-3-pyridazinyl)-6-phenylnicotinamide], the melting point fell in the range of 205 to 206 °C.

Take `CC(C)n1nc(-c2cc(C(=O)NCc3ccccn3)cnc2-c2ccccc2)ccc1=O` [Example 17, 5-(1-Isopropyl-6-oxo-1,6-dihydro-3-pyridazinyl)-6-phenyl-N-(2-pyridylmethyl)nicotinamide]: the melting point lay within 193 to 194 °C.

Take `CC(C)n1nc(-c2cc(C(=O)N3CCOCC3)cnc2-c2ccccc2)ccc1=O` [Example 18, 2-Isopropyl-6-[5-(4-morpholinylcarbonyl)-2-phenyl-3-pyridyl]-3 (2H)-pyridazinone]: the melting point fell in the range of 132 to 133 °C.

Turning to `CC(C)n1nc(-c2cc(C(=O)N3CCN(C)CC3)cnc2-c2ccccc2)ccc1=O` [Example 19, 2-Isopropyl-6-{5-[(4-methyl-1-piperazinyl)carbonyl]-2-phenyl-3-pyridyl}-3(2H)-pyridazinone], the melting point was 165 to 166 °C.

Turning to `CC(C)n1nc(-c2cc(C(=O)NCCO)cnc2-c2ccccc2)ccc1=O` [Example 20, N-(2-Hydroxyethyl)-5-(1-isopropyl-6-oxo-1,6-dihydro-3-pyridazinyl)-6-phenylnicotinamide], the melting point was in the range of 165 to 167 °C.

As for `CC(C)n1nc(-c2cc(C(=O)NCCN3CCOCC3)cnc2-c2ccccc2)ccc1=O` [Example 22, 5-(1-Isopropyl-6-oxo-1,6-dihydro-3-pyridazinyl)-N-[2-(4-morpholinyl)ethyl]-6-phenylnicotinamide], the melting point fell in the range of 162 to 163 °C.

On to `CC(=O)c1cnc(-c2ccccc2)c(-c2ccc(=O)n(C(C)C)n2)c1` [Example 23, 6-(5-acetyl-2-phenyl-3-pyridyl)-2-isopropyl-3(2H)-pyridazinone], for which the melting point fell in the range of 207 to 208 °C.

The molecule `CC(C)n1nc(-c2cc(N)cnc2-c2ccccc2)ccc1=O` [Example 26, 6-(5-amino-2-phenyl-3-pyridyl)-2-isopropyl-3 (2H)-pyridazinone] had a melting point of 147 to 148 °C.

As for `CC(=O)Nc1cnc(-c2ccccc2)c(-c2ccc(=O)n(C(C)C)n2)c1` [Example 28, N-[5-(1-Isopropyl-6-oxo-1,6-dihydro-3-pyridazinyl)-6-phenyl-3-pyridyl]acetamide], the melting point was 207 to 208 °C.

Regarding `CC(C)n1nc(-c2cc(-n3cccc3)cnc2-c2ccccc2)ccc1=O` [Example 29, 2-isopropyl-6-[2-phenyl-5-(1H-pyrrol-1-yl)-3-pyridyl]-3(2H)-pyridazinone], the melting point was 189 to 190 °C.

The molecule `CC(C)n1nc(-c2ccc(=O)[nH]c2-c2ccccc2)ccc1=O` [Example 30, 2-isopropyl-6-(6-oxo-2-phenyl-1,6-dihydro-3-pyridyl)-3(2H)-pyridazinone] came in with a melting point of 107 to 109 °C.

On to `CC(C)n1nc(-c2ccc(OCC(N)=O)nc2-c2ccccc2)ccc1=O` [Example 31, 2-{[5-(1-isopropyl-6-oxo-1,6-dihydro-3-pyridazinyl)-6-phenyl-2-pyridyl]oxy}acetamide], for which the melting point was in the range of 137 to 138 °C.

The molecule `CC(C)n1nc(-c2ccc(N)nc2-c2ccccc2)ccc1=O` [Example 32, 6-(6-amino-2-phenyl-3-pyridyl)-2-isopropyl-3(2H)-pyridazinone] yielded a melting point of 167 to 171 °C.

Molecule `CC(C)n1nc(-c2cc(Br)c(N)nc2-c2ccccc2)ccc1=O` [Example 33, 6-(6-amino-5-bromo-2-phenyl-3-pyridyl)-2-isopropyl-3(2H)-pyridazinone] displayed a melting point of 174 to 176 °C.

Take `CC(C)n1nc(-c2cc(Cl)c(N)nc2-c2ccccc2)ccc1=O` [Example 34, 6-(6-amino-5-chloro-2-phenyl-3-pyridyl)-2-isopropyl-3 (2H)-pyridazinone]: the melting point was in the range of 207 to 208 °C.

Consider `CC(C)n1nc(-c2cc(I)c(N)nc2-c2ccccc2)ccc1=O` [Example 35, 6-(6-amino-5-iodo-2-phenyl-3-pyridyl)-2-isopropyl-3 (2H)-pyridazinone], for which the melting point is 196 to 197 °C.

`CC(C)n1nc(-c2cc(-c3ccccc3)c(N)nc2-c2ccccc2)ccc1=O` [Example 36, 6-(6-amino-2,5-diphenyl-3-pyridyl)-2-isopropyl-3 (2H)-pyridazinone] gave a melting point of 208 to 209 °C.

`COC(=O)c1cc(-c2ccc(=O)n(C(C)C)n2)c(-c2ccccc2)nc1OCC(N)=O` [Example 50, Methyl 2-carbamoylmethoxy-5-(1-isopropyl-6-oxo-1,6-dihydro-3-pyridazinyl)-6-phenylnicotinate] displayed a melting point of 183 to 184 °C.

`CC(C)n1nc(-c2c(-c3ccccc3)nc(Cl)c(N)c2Cl)ccc1=O` [Example 77, 6-(5-amino-4,6-dichloro-2-phenyl-3-pyridyl)-2-isopropyl-3(2H)-pyridazinone] showed a melting point of 186 to 188 °C.

As to `CC(C)n1nc(-c2cc(-c3ncnn3C)c(N)nc2-c2ccccc2)ccc1=O` [Example 122, 6-[6-amino-5-(1-methyl-1H-1,2,4-triazol-5-yl)-2-phenyl-3-pyridyl]-2-isopropyl-3 (2H)-pyridazinone], the melting point is 253 to 254 °C.

In another series the target is human A2a receptor (Homo sapiens, UniProt P29274). The series is described as follows: Adenosine antagonistic activity: radioligand binding with [3H]CGS 21680 (20 nM). The method, then: (§1) The adenosine antagonistic activity [Ki(nM)] of the test compound was examined by radioligand binding techniques using 8-cyclopentyl-1,3-dipropylxanthine, [dipropyl-2,3-^3H (N)] ([^3H]DPCPX, 4.5 nM) for human A1 receptor and [^3H]CGS 21680 (20 nM) for human A2a receptor.
Chain of human A2a receptor (P29274 whole entry): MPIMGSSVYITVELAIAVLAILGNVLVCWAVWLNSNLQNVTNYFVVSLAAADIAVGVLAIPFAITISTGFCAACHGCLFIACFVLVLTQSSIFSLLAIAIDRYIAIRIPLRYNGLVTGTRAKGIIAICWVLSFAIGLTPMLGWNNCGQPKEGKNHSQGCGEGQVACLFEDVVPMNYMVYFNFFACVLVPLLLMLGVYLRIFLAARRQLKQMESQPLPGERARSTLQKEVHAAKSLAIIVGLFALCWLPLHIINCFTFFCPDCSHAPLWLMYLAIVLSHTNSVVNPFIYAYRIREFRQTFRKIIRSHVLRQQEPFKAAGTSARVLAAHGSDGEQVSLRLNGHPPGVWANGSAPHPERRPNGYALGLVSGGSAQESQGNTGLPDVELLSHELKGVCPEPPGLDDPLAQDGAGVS
`CC(C)n1nc(-c2cc(Br)c(N)nc2-c2ccccc2)ccc1=O` [Example 33, 6-(6-amino-5-bromo-2-phenyl-3-pyridyl)-2-isopropyl-3(2H)-pyridazinone] came in with a Ki of 0.91 nM.

The molecule `CC(C)n1nc(-c2cc(-c3nc(-c4ccccc4)cs3)c(N)nc2-c2ccccc2)ccc1=O` [Example 40, 6-[6-Amino-5-(4-phenyl-1,3-thiazol-2-yl)-2-phenyl-3-pyridyl]-2-isopropyl-3(2H)-pyridazinone] returned a Ki of 6.58 nM.

For the molecule `CC(C)n1nc(-c2cc(O)cnc2-c2ccccc2)ccc1=O` [Example 53, 6-(5-hydroxy-2-phenyl-3-pyridyl)-2-isopropyl-3(2H)-pyridazinone], the affinity, expressed as Ki, was 3.87 nM.

The next series concerns the target T1, human A1 receptor (Homo sapiens, UniProt P30542).
T1 sequence (P30542 1-326): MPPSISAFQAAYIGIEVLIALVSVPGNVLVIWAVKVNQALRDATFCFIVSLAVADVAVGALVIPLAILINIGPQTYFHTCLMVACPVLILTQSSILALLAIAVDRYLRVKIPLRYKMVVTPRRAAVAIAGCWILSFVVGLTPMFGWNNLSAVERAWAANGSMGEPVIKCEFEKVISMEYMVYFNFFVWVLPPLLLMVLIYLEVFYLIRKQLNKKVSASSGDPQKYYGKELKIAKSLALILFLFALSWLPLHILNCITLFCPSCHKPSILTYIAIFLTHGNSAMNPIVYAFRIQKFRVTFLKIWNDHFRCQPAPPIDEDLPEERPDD
As to the kind of experiment: Adenosine antagonistic activity: radioligand binding with [3H]DPCPX (4.5 nM). As to the method: as §1
Molecule `CC(C)n1nc(-c2cc(Br)c(N)nc2-c2ccccc2)ccc1=O` [Example 33, 6-(6-amino-5-bromo-2-phenyl-3-pyridyl)-2-isopropyl-3(2H)-pyridazinone] returned a Ki of 0.41 nM.

`CC(C)n1nc(-c2cc(-c3nc(-c4ccccc4)cs3)c(N)nc2-c2ccccc2)ccc1=O` [Example 40, 6-[6-Amino-5-(4-phenyl-1,3-thiazol-2-yl)-2-phenyl-3-pyridyl]-2-isopropyl-3(2H)-pyridazinone] yielded a Ki of 4.44 nM.

`CC(C)n1nc(-c2cc(O)cnc2-c2ccccc2)ccc1=O` [Example 53, 6-(5-hydroxy-2-phenyl-3-pyridyl)-2-isopropyl-3(2H)-pyridazinone] came in with a Ki of 0.43 nM.
